Test results: ChEMBL document CHEMBL3400109, “Synthesis and biological evaluation of C-13' substituted 7'-homo-anhydrovinblastine derivatives” (Bioorg Med Chem Lett, 2015)

How the values were obtained:
K562 = experiment: Cytotoxicity against human K562 cells assessed as inhibition of cell proliferation after 72 hrs; type: functional, cell-based; conditions: K562, 72 h
[1] = Cytotoxicity against human HCT116 cells assessed as inhibition of cell proliferation after 72 hrs; type: functional, cell-based; conditions: HCT-116, 72 h
[2] = Cytotoxicity against human U87 cells assessed as inhibition of cell proliferation after 72 hrs; type: functional, cell-based, U-87MG ATCC; conditions: U-87 MG
Tubulin (Homo sapiens) = Tubulin (Homo sapiens) (UniProt P68371+Q9H4B7+P0DPH7+P68366+Q13509+Q71U36+P04350+Q3ZCM7+P07437+P68363+Q9BQE3+Q6PEY2+Q13885+Q9BVA1+Q9BUF5); experiment: (§1) Inhibition of tubulin (unknown origin) polymerization at 10 mg/ml; type: protein-complex assay
Tubulin [3] = experiment: Inhibition of tubulin (unknown origin) polymerization; type: protein-complex assay, Homo sapiens
Tubulin [4] = experiment: as §1; type: protein-complex assay, Homo sapiens

| Structure (SMILES) | IC50 (K562) | IC50 [1] | IC50 [2] | inhibition (Tubulin (Homo sapiens)) | IC50 (Tubulin [3]) | IC50 (Tubulin [4]) |
| --- | --- | --- | --- | --- | --- | --- |
| CCC1=CC2CN(/C=C(/C(=O)OC)Cc3c([nH]c4ccc(C=O)cc34)[C@@](C(=O)OC)(c3cc4c(cc3OC)N(C)[C@H]3[C@@](O)(C(=O)OC)[C@H](OC(C)=O)[C@]5(CC)C=CCN6CC[C@]43[C@@H]65)C2)C1 (stereo partly specified) | 0.04 µM | 0.27 µM | 0.023 µM | 11% | – | – |
| CCC1=C[C@@H]2CN(C1)Cc1c([nH]c3ccccc13)[C@@](C(=O)OC)(c1cc3c(cc1OC)N(C)[C@H]1[C@@](O)(C(=O)OC)[C@H](OC(C)=O)[C@]4(CC)C=CCN5CC[C@]31[C@@H]54)C2 [VINORELBINE] | – | 0.015 µM | 0.0035 µM | – | 0.7 µM | – |
| C#Cc1ccc2[nH]c3c(c2c1)C/C(C(=O)OC)=C(/C(=O)NC(C)C)N1CC(CC)=CC(C1)C[C@]3(C(=O)OC)c1cc2c(cc1OC)N(C)[C@H]1[C@@](O)(C(=O)OC)[C@H](OC(C)=O)[C@]3(CC)C=CCN4CC[C@]21[C@@H]43 (stereo partly specified) | 0.6 µM | 3 µM | 2 µM | 16% | – | – |
| C#Cc1ccc2[nH]c3c(c2c1)C/C(C(=O)OC)=C\N1CC(CC)=CC(C1)C[C@]3(C(=O)OC)c1cc2c(cc1OC)N(C)[C@H]1[C@@](O)(C(=O)OC)[C@H](OC(C)=O)[C@]3(CC)C=CCN4CC[C@]21[C@@H]43 (stereo partly specified) | 0.6 µM | 2.5 µM | 1.6 µM | 27% | – | – |
| CCC1=CC2CN(C1)/C(C(=O)NC(C)C)=C(/C(=O)OC)Cc1c([nH]c3ccc(I)cc13)[C@@](C(=O)OC)(c1cc3c(cc1OC)N(C)[C@H]1[C@@](O)(C(=O)OC)[C@H](OC(C)=O)[C@]4(CC)C=CCN5CC[C@]31[C@@H]54)C2 (stereo partly specified) | – | 5 µM | 3 µM | 44% | – | – |
| CCC1=CC2CN(/C=C(/C(=O)OC)Cc3c([nH]c4ccc(Br)cc34)[C@@](C(=O)OC)(c3cc4c(cc3OC)N(C)[C@H]3[C@@](O)(C(=O)OC)[C@H](OC(C)=O)[C@]5(CC)C=CCN6CC[C@]43[C@@H]65)C2)C1 (stereo partly specified) | 0.5 µM | 3 µM | 3 µM | 23% | – | – |
| CCC1=CC2CN(C1)/C(C(=O)NC(C)C)=C(/C(=O)OC)Cc1c([nH]c3ccc(C)cc13)[C@@](C(=O)OC)(c1cc3c(cc1OC)N(C)[C@H]1[C@@](O)(C(=O)OC)[C@H](OC(C)=O)[C@]4(CC)C=CCN5CC[C@]31[C@@H]54)C2 (stereo partly specified) | 0.001 µM | 0.02 µM | 0.033 µM | 0% | – | – |
| CCC1=CC2CN(C1)/C(C(=O)NC(C)C)=C(/C(=O)OC)Cc1c([nH]c3ccc(C=O)cc13)[C@@](C(=O)OC)(c1cc3c(cc1OC)N(C)[C@H]1[C@@](O)(C(=O)OC)[C@H](OC(C)=O)[C@]4(CC)C=CCN5CC[C@]31[C@@H]54)C2 (stereo partly specified) | 0.016 µM | 0.047 µM | 0.119 µM | 25% | – | – |
| CCC1=CC2CN(/C=C(/C(=O)OC)Cc3c([nH]c4ccc(I)cc34)[C@@](C(=O)OC)(c3cc4c(cc3OC)N(C)[C@H]3[C@@](O)(C(=O)OC)[C@H](OC(C)=O)[C@]5(CC)C=CCN6CC[C@]43[C@@H]65)C2)C1 (stereo partly specified) | 1 µM | 7 µM | 5 µM | – | – | 6.2 µM |
| CC[C@]1(O)C[C@@H]2CN(CCc3c([nH]c4ccccc34)[C@@](C(=O)OC)(c3cc4c(cc3OC)N(C)[C@H]3[C@@](O)(C(=O)OC)[C@H](OC(C)=O)[C@]5(CC)C=CCN6CC[C@]43[C@@H]65)C2)C1 [VINBLASTINE] | 0.01 µM | 0.002 µM | 0.001 µM | – | – | – |
| CCC1=CC2CN(/C=C(/C(=O)OC)Cc3c([nH]c4ccc(C)cc34)[C@@](C(=O)OC)(c3cc4c(cc3OC)N(C)[C@H]3[C@@](O)(C(=O)OC)[C@H](OC(C)=O)[C@]5(CC)C=CCN6CC[C@]43[C@@H]65)C2)C1 (stereo partly specified) | 0.02 µM | 0.05 µM | 0.011 µM | 23% | – | – |
